Common to all, as to type: cell-based
Assay [1] relates to bacterial mix: Escherichia coli DSM 1576, Alcaligenes faecalis DSM 13644, Pseudomonas aeruginosa ATCC 15442, Staphylococcus aureus ATCC 6538, Burkholderia …. Description: Preservative activity of a basic composition (10% PG in water, pH 7) with 4,4'-dichloro-2-hydroxydiphenyl ether (diclosan) against bacterial contamination (Example 2.2). To be noted: day 7. As to the method:
(§1) An aqueous composition of pH 7 comprising 10% by weight of propyleneglycol (PG) as organic solvent, 0.015% by weight of 4,4′-dichloro-2-hydroxydiphenyl ether (diclosan) as antimicrobial and 0.04 or 0.1% by weight of the amides listed in the below table was tested for its preserving activity against bacterial contamination (the weight percentages relate to the total weight of the composition). For this purpose, the samples were contaminated with a bacterial mix consisting of: • Escherichia coli DSM 1576 • Alcaligenes faecalis DSM 13644 • Pseudomonas aeruginosa ATCC 15442 • Staphylococcus aureus ATCC 6538 • Burkholderia cepacia DSM 7288 • Pseudomonas putida DSM 12735
(§2) The samples were inoculated with the bacterial mix at day 0 to obtain 10E+06 to 10E+07 CFU/ml inoculation in the test sample and stored at 25° C. for 7 days.
(§3) CFU was determined at day 7.
Any CFU value at day 7 (d7) obtained with a sample according to the invention containing diclosan and amide (10% PG+0.015% diclosan+Amide in water) lower than the respective value of the “comparative 3” example (10% by weight of propyleneglycol+0.015% by weight of 4,4′-dichloro-2-hydroxydiphenyl ether (diclosan) in water) indicates a better performance.

The test system is the same in assay [2]. Description: Preservative activity of a basic composition (10% PG in water, pH 7) with 1,2-benzisothiazol-3(2H)-one (BIT) against bacterial contamination (Example 2.3). As to conditions: 10% PG + 0.004% BIT, no amide (Comparative 2); day 7. As to the method:
as §1, with “0.004%” for “0.015%”, “1,2-benzisothiazol-3(2H)-one (BIT)” for “4,4′-dichloro-2-hydroxydiphenyl ether (diclosan)”, “0.04%” for “0.04 or 0.1%”, “amide” for “amides”, “(the percentages are” for “(the”, “percent and” for “percentages”
as §2, §3
Any CFU value at day 7 (d7) obtained with a sample according to the invention containing BIT and amide (10% PG+0.004% BIT+Amide in water) lower than the respective value of the “comparative 2” example (10% by weight of propyleneglycol+0.004% by weight of 1,2-benzisothiazol-3(2H)-one (BIT) in water) indicates a better performance.

The subject of assay [3] is fungal mix (including yeasts and molds): Aspergillus brasiliensis DSM 1988, Rhodotorula mucilaginosa DSM 13621, Yarrowia lipolytica DSM 8218. Briefly: Preservative activity of a basic composition (10% PG in water, pH 7) with 2-phenoxyethanol against fungal contamination (Example 1.1). To be noted: 10% PG + 0.36% PE + 0.04% Amide in water, pH 7, 25° C.; for d7 [CFU/ml]: fungal mix inoculated at day 0, 7 and 14 (1-3x10E+05 CFU/ml), day 7 before re-inoculation; for d14 [CFU/ml] / d21 [CFU/ml]: fungal mix inoculated at day 0, 7 and 14; for d14 [CFU/ml]: day 14 before re-inoculation; for d21 [CFU/ml]: day 21. As to the method:
An aqueous composition of pH 7 comprising 10% by weight of propyleneglycol (PG) as organic solvent, 0.36% by weight of 2-phenoxyethanol (PE) as antimicrobial and 0.04% by weight of the amide listed in the below table was tested for its preserving activity against fungal contamination (the percentages are weight percent and relate to the total weight of the composition). For this purpose, the samples were contaminated with a fungal mix (including yeasts and molds) consisting of: • Aspergillus brasiliensis DS M 1988 • Rhodotorula mucilaginosa DSM 13621 • Yarrowia lipolytica DS M 8218
To control the efficacy, following control compositions were tested: • “Reference”, consisting of only 10% by weight of propylene glycol in water • “Comparative 1” containing 10% by weight of propylene glycol and amide in the given concentration, but no 2-phenoxyethanol • […] in the given concentration, but no amide.
The samples were inoculated with the fungal mix at day 0, 7 and 14 to obtain a cell density in the range of 1-3×10E+05 CFU/ml (CFU=colony forming units) in the test samples (compositions listed in the below table) and stored at 25° C. for 21 days.
(§4) CFU was determined before re-inoculation at days 7 and 14, and on day 21.

Assay [4] concerns fungal mix: Aspergillus brasiliensis DSM 1988, Rhodotorula mucilaginosa DSM 13621, Yarrowia lipolytica DSM 8218. Briefly: Preservative activity in a manual dishwashing composition (MDW, pH 7.1) with 1.0% 2-phenoxyethanol against fungal mix (Example 1.2). To be noted: for d7 [CFU/ml]: day 7; for d14 [CFU/ml]: day 14; for d21 [CFU/ml]: day 21. As to the method:
(§5) A manual dish wash detergent (MDW) of pH 7.1 containing the following components was used:
The samples were contaminated with a fungal mix consisting of: • Aspergillus brasiliensis DSM 1988 • Rhodotorula mucilaginosa DSM 13621 • Yarrowia lipolytica DSM 8218
The samples were inoculated with the fungal mix at day 0 and 7 to obtain 1-3×10E+05 CFU/ml inoculation in the test sample consisting of the above-defined dish wash detergent MDW and stored at 25° C. for 21 days. CFU was determined before re-inoculation at day 7, and on days 14 and 21.
Any CFU value at d7, d14 or d21 obtained with a MDW sample of the invention containing 2-phenoxyethanol and amide (MDW+1.0% PE+x % of Amide) lower than the respective value of the comparative example (MDW+1.0% by weight of 2-phenoxyethanol) indicates a better performance of the inventive combination of 2-phenoxyethanol with the amide.

Assay [5] has as its system bacterial mix: Escherichia coli DSM 1576, Alcaligenes faecalis DSM 13644, Pseudomonas aeuginosa ATCC 15442, Staphylococcus aureus ATCC 6538, Burkholderia …. Briefly: Preservative activity of a basic composition (10% PG in water, pH 7) with 2-phenoxyethanol against bacterial contamination (Example 2.1). To be noted: 10% PG + 0.36% PE + 0.04% amide; for d7 [CFU/ml]: day 7; for d14 [CFU/ml]: day 14; for d21 [CFU/ml]: day 21. Here is the method:
as §1, with “0.36%” for “0.015%”, “2-phenoxyethanol (PE)” for “4,4′-dichloro-2-hydroxydiphenyl ether (diclosan)”, “0.04%” for “0.04 or 0.1%”, “amide” for “amides”, “aeuginosa” for “aeruginosa”
The samples were inoculated with the bacterial mix at day 0, 7 and 14 to obtain 10E+06 to 10E+07 CFU/ml inoculation in the test samples (compositions listed in the below table) consisting of 10% by weight of propylene glycol in water and stored at 25° C. for 21 days.
as §4

Assay [6] deals with bacterial mix: Escherichia coli DSM 1576, Alcaligenes faecalis DSM 13644, Pseudomonas aeruginosa ATCC 15442, Staphylococcus aureus ATCC 6538, Burkholderia …. Description: Preservative activity in a manual dishwashing composition (MDW, pH 7.1) with 2.0% 2-phenoxyethanol against bacterial mix (Example 2.4). To be noted: for d7 [CFU/ml]: day 7; for d14 [CFU/ml]: day 14; for d21 [CFU/ml]: day 21. Here is the method:
as §5
(§6) The samples were contaminated with a bacterial mix consisting of: • Escherichia coli DSM 1576 • Alcaligenes faecalis DSM 13644 • Pseudomonas aeruginosa ATCC 15442 • Staphylococcus aureus ATCC 6538 • Burkholderia cepacia DSM 7288 • Pseudomonas putida DSM 12735
The samples were inoculated with the bacterial mix at day 0 and 7 to obtain 10E+06 to 10E+07 CFU/ml inoculation in the test sample and stored at 25° C. for 21 days. CFU was determined before re-inoculation at day 7 and on days 14 and 21.
Any CFU value at day 7 (d7), day 14 (d14) or day 21 (d21) obtained with a sample according to the invention containing 2-phenoxyethanol and amide (MDW+2.0% PE+x % Amide) lower than the respective value of the “comparative 2” example (MOW+2.0% by weight of 2-phenoxyethanol) indicates a better performance.

For assay [7] the test system is unchanged. Briefly: Preservative activity in a manual dishwashing composition (MDW, pH 7.1) with 1.0% 2-phenoxyethanol against bacterial mix (Example 2.5). As to conditions: MDW + 1.0% PE + 1.0% amide. As to the method: A manual dish wash detergent (MOW) of pH 7.1 containing the following components was used:
as §6
The samples were inoculated with the bacterial mix at day 0 and 7 to obtain 10E+06 to 10E+07 CFU/ml inoculation in the test sample and stored at 25° C. for 21 days. CFU was determined before re-inoculation at day 7 and on day 21.
Any CFU value at day 7 (d7) or day 21 (d21) obtained with a sample according to the invention containing 2-phenoxyethanol and amide (MDW+1.0% PE+1.0% Amide) lower than the respective value of the comparative example (MDW+1% by weight of 2-phenoxyethanol) indicates a better performance.

Setting [8] is: MDW + 0.25% amide, no PE (Comparative 1c).
The mark [9] stands for this setting: MDW + 5.0% amide, no PE (Comparative 1a).

Molecules are shown by their SMILES.

With `Oc1cc(Cl)ccc1Oc1ccc(Cl)cc1` [diclosan, 4,4′-dichloro-2-hydroxydiphenyl ether, reference compound], the “d7 [CFU/ml]” value in assay [1] (10% PG + 0.015% diclosan, no amide (Comparative)) is listed as >100,000 CFU/ml.
Turning to `O=c1[nH]sc2ccccc12` [BIT, 1,2-benzisothiazol-3(2H)-one, reference compound], the “d7 [CFU/ml]” value in assay [2] is recorded as >100,000 CFU/ml.
For the molecule `CCCCC(CC)CNC(=O)/C=C\C(=O)O` (stereo not drawn) [Maleic acid N-2-ethylhexyl-amide], the “d7 [CFU/ml]” value in assay [3] is given as 875 CFU/ml; in assay [4] (MDW + 1.0% PE + 0.6% amide), 14,500 CFU/ml; in assay [5] it was 545 CFU/ml; in assay [6] (setting [8]), >100,000 CFU/ml; in assay [6] (MDW + 1.0% amide, no PE), >100,000 CFU/ml; in assay [6] (MDW + 2.0% PE + 0.25% amide), below 10 CFU/ml. Moreover, the “d7 [CFU/ml]” value in assay [6] (MDW + 2.0% PE + 1.0% amide) is recorded as below 10 CFU/ml; in assay [6] (MDW + 2.0% PE + 5.0% amide), below 10 CFU/ml; in assay [6] (setting [9]), >100,000 CFU/ml. The “d14 [CFU/ml]” value in assay [3] is on record as 8,500 CFU/ml; in assay [4] (MDW + 1.0% PE + 0.6% amide), 2,900 CFU/ml; in assay [5], 22,000 CFU/ml; in assay [6] (setting [8]) it was >100,000 CFU/ml; in assay [6] (MDW + 1.0% amide, no PE), >100,000 CFU/ml; in assay [6] (MDW + 2.0% PE + 0.25% amide) it was below 10 CFU/ml. The figures for the “d14 [CFU/ml]” value in assay [6] (MDW + 2.0% PE + 1.0% amide), in assay [6] (MDW + 2.0% PE + 5.0% amide) and in assay [6] (setting [9]) were below 10 CFU/ml, below 10 CFU/ml and >100,000 CFU/ml, respectively. Further, the “d21 [CFU/ml]” value in assay [3] is 18,500 CFU/ml; in assay [4] (MDW + 1.0% PE + 0.6% amide), 225 CFU/ml; in assay [5] it was 20,500 CFU/ml; in assay [6] (setting [8]), >100,000 CFU/ml; in assay [6] (MDW + 1.0% amide, no PE), >100,000 CFU/ml; in assay [6] (MDW + 2.0% PE + 0.25% amide), below 10 CFU/ml. Moreover, the “d21 [CFU/ml]” value in assay [6] (MDW + 2.0% PE + 1.0% amide) is reported as below 10 CFU/ml; in assay [6] (MDW + 2.0% PE + 5.0% amide), below 10 CFU/ml; in assay [6] (setting [9]) it was >100,000 CFU/ml.
Regarding `CCCCCCCCCC(=O)N1CCOCC1` [n-Decanoyl-morpholine], the “d7 [CFU/ml]” value in assay [3] is 55 CFU/ml; in assay [4] (MDW + 1.0% PE + 1.0% amide), 1,200 CFU/ml; in assay [5], below 10 CFU/ml; in assay [1] (10% PG + 0.015% diclosan + 0.04% amide), 41,500 CFU/ml; in assay [1] (10% PG + 0.04% amide, no diclosan (Comparative 1a)), >100,000 CFU/ml. Also, the “d14 [CFU/ml]” value in assay [3] was below 10 CFU/ml; in assay [4] (MDW + 1.0% PE + 1.0% amide), 305 CFU/ml; in assay [5], 30 CFU/ml. In addition, the results for the “d21 [CFU/ml]” value in assay [3], in assay [4] (MDW + 1.0% PE + 1.0% amide) and in assay [5] were 35 CFU/ml, 245 CFU/ml and 190 CFU/ml, respectively.
In the case of `C=CCCCCCCCC(=O)N(C)C` [N,N-dimethyl 9-decenoylamide], the “d7 [CFU/ml]” value in assay [7] (day 7) is listed as below 10 CFU/ml. Besides, the “d21 [CFU/ml]” value in assay [7] (day 21) is recorded as below 10 CFU/ml.

Source of the values: patent US20250040539A1, “COMPOSITION COMPRISING AN ANTIMICROBIAL AGENT AND A CARBOXAMIDE” (BASF SE, priority 2021, published 2025).
